Data taken from the supplement of paper PMC8882468.
± gives the standard deviation of the averaged measurements.

Key:
Experiment in all cases: CTG-3D luminescence at 96 h relative to day-0 seeding control (ratio to day 0); higher = more growth / less cytotoxicity; PDxO 3D drug screen (set 2), 96 h, CTG-3D normalised to day-0 seeding control.
HCI-001 = system: HCI-001 (organoid from a triple-negative breast cancer xenograft)
HCI-025 = system: HCI-025 (organoid from a breast cancer xenograft)
HCI-002 = system: HCI-002 (organoid from a triple-negative breast cancer xenograft)
HCI-015 = system: HCI-015 (organoid from a triple-negative breast cancer xenograft)
HCI-011.E2 = system: HCI-011.E2 (organoid from an ER-positive breast cancer xenograft)
HCI-024 = system: HCI-024 (organoid from a breast cancer xenograft)

CC(C)n1nc(-c2ccc3oc(N)nc3c2)c2c(N)ncnc21 [sapanisertib]
CTG-3D luminescence at 96 h
Details | 12.5 pM | 0.00025 µM | 0.005 µM | 0.1 µM | 1 µM | 10 µM | 100 µM | 625 fM
HCI-001, days in culture: 365 | 2.81 | 2.2 | 2.02 | 1.47 | 0.787 | 0.663 | 0.424 | 1.97
HCI-001, days in culture: 397 | 1.78 | 1.58 | 1.37 | 0.91 | 0.823 | 0.77 | 0.471 | 1.56
HCI-001, days in culture: 401 | 1.48 | 1.97 | 1.53 | 0.815 | 0.544 | 0.657 | 0.396 | 1.63
HCI-002, days in culture: 127 | 2.42 | 2.94 | 2.62 | 1.76 | 0.875 | 0.742 | 0.27 | 3.04
HCI-002, days in culture: 155 | 5.75 | 5.31 | 5.49 | 2.38 | 1.32 | 0.875 | 0.163 | 4.67
HCI-002, days in culture: 168 | 3.37 | 3.2 | 3.78 | 1.61 | 0.882 | 0.787 | 0.155 | 4.04
HCI-011.E2, days in culture: 74 | 2.73 | 2.43 | 1.98 | 0.488 | 0.142 | 0.167 | 0.138 | 2.6
HCI-015, days in culture: 333 | 1.82 | 1.45 | 1.21 | 0.567 | 0.461 | 0.114 | 0.0973 | 1.56
HCI-015, days in culture: 355 | 2.17 | 1.74 | 1.65 | 1.3 | 0.564 | 0.557 | 0.233 | 1.38
HCI-015, days in culture: 369 | 2.06 | 1.61 | 2.17 | 0.797 | 0.611 | 0.449 | 0.336 | 1.68
HCI-024, days in culture: 202 | 1.13 | 0.881 | 0.616 | 0.616 | 0.515 | 0.634 | 0.155 | 1.14
HCI-024, days in culture: 231 | 1.11 | 1.3 | 1.01 | 0.69 | 0.589 | 0.241 | 0.0656 | 0.868
HCI-024, days in culture: 254 | 2.43 | 1.09 | 1.25 | 1.1 | 0.518 | 0.541 | 0.118 | 1.6
HCI-025, days in culture: 175 | 1.69 | 1.73 | 1.62 | 0.506 | 0.401 | 0.466 | 0.283 | 2.01
HCI-025, days in culture: 189 | 2.16 | 2.67 | 1.63 | 0.619 | 0.34 | 0.244 | 0.0962 | 3.34
HCI-025, days in culture: 212 | 1.26 | 1.57 | 2.69 | 0.0755 | 0.227 | 0.183 | 0.277 | 1.33
HCI-025, days in culture: 224 | 2.13 | 1.98 | 1.91 | 0.411 | 0.423 | 0.26 | 0.17 | 1.86

HCI-011.E2
Details | CTG-3D luminescence at 96 h
12.5 pM | 1.55 ± 0.24
0.00025 µM | 1.65 ± 0.35
0.005 µM | 0.974 ± 0.011
0.1 µM | 0.413 ± 0.1
1 µM | 0.187 ± 0.05
10 µM | 0.228 ± 0.036
100 µM | 0.277 ± 0.05
625 fM | 1.96 ± 0.3

C[C@@H](Nc1cc(F)cc(F)c1)c1cc(C(=O)N(C)C)cc2c(=O)cc(N3CCOCC3)oc12 [AZD-8186]
CTG-3D luminescence at 96 h
Details | 12.5 pM | 0.00025 µM | 0.005 µM | 0.1 µM | 1 µM | 10 µM | 100 µM | 625 fM
HCI-001, days in culture: 365 | 2.63 | 2.2 | 2.38 | 2.83 | 1.84 | 1.13 | 1.08 | 1.53
HCI-001, days in culture: 397 | 1.79 | 2.6 | 2.23 | 2.14 | 1.81 | 1.69 | 0.737 | 1.6
HCI-001, days in culture: 401 | 1.64 | 1.69 | 1.59 | 1.76 | 1.28 | 1.24 | 0.924 | 1.69
HCI-002, days in culture: 127 | 2.49 | 2.9 | 3.08 | 3.46 | 2.69 | 2.62 | 1.37 | 2.78
HCI-002, days in culture: 155 | 4.16 | 4.76 | 5.31 | 5.43 | 4.16 | 3.89 | 1.67 | 4.15
HCI-002, days in culture: 168 | 3.35 | 3.58 | 4.3 | 3.62 | 3.22 | 2.87 | 0.73 | 4.14
HCI-011.E2, days in culture: 74 | 2.16 | 1.88 | 1.79 | 2.21 | 1.49 | 1.12 | 0.136 | 2.4
HCI-015, days in culture: 333 | 2.09 | 1.46 | 1.76 | 1.33 | 1.37 | 0.684 | 0.452 | 1.77
HCI-015, days in culture: 355 | 1.76 | 3.09 | 1.3 | 1.46 | 1.12 | 2.35 | 0.668 | 1.57
HCI-015, days in culture: 369 | 2.35 | 1.7 | 1.96 | 1.84 | 2.18 | 1.24 | 1.01 | 1.96
HCI-024, days in culture: 202 | 1.88 | 0.916 | 0.693 | 1.33 | 0.84 | 1.61 | 0.461 | 1.39
HCI-024, days in culture: 231 | 1.33 | 1.25 | 1.21 | 1.01 | 1.32 | 0.93 | 0.399 | 1.35
HCI-024, days in culture: 254 | 1.17 | 1.68 | 1.81 | 2.04 | 0.901 | 1.55 | 0.743 | 1.01
HCI-025, days in culture: 175 | 1.63 | 2.47 | 1.8 | 1.98 | 2.4 | 3.48 | 1.34 | 1.51
HCI-025, days in culture: 189 | 2.22 | 1.46 | 1.89 | 1.5 | 1.81 | 1.88 | 0.528 | 3.16
HCI-025, days in culture: 212 | 1.07 | 3.57 | 2.79 | 1.25 | 0.857 | 1.27 | 1.2 | 1.56
HCI-025, days in culture: 224 | 1.99 | 2.38 | 1.66 | 2 | 2.68 | 1.8 | 1.09 | 2.03

HCI-011.E2
Details | CTG-3D luminescence at 96 h
12.5 pM | 1.45 ± 0.15
0.00025 µM | 1.9 ± 0.33
0.005 µM | 1.54 ± 0.0099
0.1 µM | 1.81 ± 0.39
1 µM | 1.47 ± 0.066
10 µM | 1.01 ± 0.11
100 µM | 0.293 ± 0.16
625 fM | 2.13 ± 0.45
